Results from patent publication US8993523B2, “Dimeric IAP inhibitors” (Novartis AG, priority 2010, dated 2015).

Key:
[1] = biological target: T1, XIAP-BIR3 (Homo sapiens, UniProt P98170); test: Biacore SPR solution inhibition (competition with smac7mer peptide) binding assay, XIAP-BIR3; settings: 100 nM XIAP-BIR3, competition with immobilised smac7mer peptide, 25° C.; read-out: XIAP-BIR3 Binding Biacore (Competitive) EC50
T1 construct: with either 100 nM XIAP-BIR3 or 6 nM cIAP1-BIR3
Description: (§1) The present method includes utility of a Surface plasmon resonance (SPR)-based biosensor (Biacore™ GE Healthcare, Uppsala, Sweden) to examine competition between the compounds of the present invention and smac7mer peptide for XIAP-BIR3 and cIAP1-BIR3 binding groove occupancy.
(§2) Biacore™ utilizes the phenomenon of surface plasmon resonance (SPR) to detect and measure binding interactions. In a typical Biacore experiment, one of the interacting molecules is immobilized on a flexible dextran matrix while the interacting partner is flowed over the derivatized surface. A binding interaction results in an increase in mass on the sensor surface and a corresponding direct change in the refractive index of the medium in the vicinity of the sensor surface. Changes in refractive index or signal are recorded in resonance units (R.U.) Signal changes due to association and dissociation of complexes are monitored in a non-invasive manner, continuously and in real-time, the results of which are reported in the form of a sensorgram.
(§3) Solution Inhibition Assay Format:
(§4) Biacore™ T100 (GE Healthcare, Uppsala, Sweden) was used to conduct all experiments reported herein. Sensor surface preparation and interaction analyses were performed at 25° C. Buffer and Biacore reagents were purchased from GE Healthcare. Running buffer containing 10 mM Hepes, pH7.4, 150 mM sodium chloride, 1.25 mM Dithiothreitol, 2% Dimethyl sulfoxide and 0.05% polysorbate 20 was utilized throughout all experiments.
(§5) Biotinylated smac7mer peptide was diluted to 10 nM in running buffer and captured onto a sensor surface pre-derivatized with streptavidin (sensor chip SA) towards peptide surface densities in the range 40-100 R.U. Peptide captured surfaces were blocked with 500 μM PEO2-Biotin (Thermo Scientific).
(§6) Interaction analyses were performed by first equilibrating each compound within a six point seven fold compound dilution series in the range 1 μM to 0.06 nM with either 100 nM XIAP-BIR3 or 6 nM cIAP1-BIR3 for at least one hour during instrument start-up procedures. Protein compound mixtures were then injected over reference and smac7mer peptide surfaces in series for 60 seconds at a flow-rate of 60 μL/min. Surface regeneration was performed at the end of each analysis cycle by a 30 second injection of 10 mM Glycine, pH 2.5, 1M Sodium Chloride, 0.05% polysorbate 20. Additionally, control compound samples and control XIAP-BIR3 or cIAP1-BIR3 samples were prepared and run at regular intervals to monitor surface and assay performance.
(§7) Data analyses were carried out using Biacore™ T100 evaluation software v2.0 to validate assay quality. Binding level report points were plotted versus logarithmic compound concentration values and analyzed in Graphpad prism 5 via non-linear regression using a one-site competition model. EC50 values were generated and used as a measure of inhibitor potency.

[2] = system: Panc3.27 tumor cells; test: Cellular assay: Panc3.27 tumor cell proliferation (Cell Titer Glo); assay type: cell-based; settings: Panc3.27 cells, 72 hour treatment, read-out: PANC proliferation IC50
Protocol: Cellular Assay—Treatment of Panc3.27 Tumor Cells with Dimeric IAP Antagonists
On day one adherent Panc3.27 cells are plated into two 96-well, clear, flat bottom plates. All wells in row A contain 90 uL of media. All wells in rows B-G contain a total volume of 90 uL per well and 4000 cells per well for Panc3.27 cell lines. Plates are then incubated overnight for 18 hours at 37° C., 5% CO2.
On day two cells are treated with the compounds of formula M-L-M′. Treatments are done in triplicate. The compounds are first serially diluted in DMSO and then added to media giving a final concentration of 0.2% DMSO when added to cells. Cells are treated with 10 uL of serially diluted compounds of formula M-L-M′ at a final concentration of 1000 nM, 200 nM, 40 nM, 8 nM, 1.6 nM, 0.32 nM, 0.06 nM, 0.013 nM, 0.0026 nM, and one untreated well. Plate two is used as a time zero plate.
To measure cell viability 50 uL of Cell Titer Glo (CTG) solution is added to row A, media only and B, cells and media. CTG is purchased from Promega Corporation catalog number G7573. The solution is prepared according to manufacturer's instructions. CTG measures the amount of ATP released from viable cells that is proportional to the number of cells in each well. After incubating for ten minutes with CTG plates are measured on a luminescent reader at 700 nm wavelength. Read time is approximately one second per well for a 96-well plate.
On day five 50 uL of CTG is added to plate one, rows A-G, incubated for 10 minutes at room temperature and read on a luminescent reader. Raw data is adjusted to account for the time zero plate as well as background noise. Triplicate values are averaged and percent control growth is calculated. Percent control growth is calculated using the following logical test: If well read data point (a) is greater than time zero data point (t=0), then 100*[(a)−(t=0)]/[(72 hour total growth)−(t=0)], OR 100*[(a)−(t=0)]/[(t=0)]. Data is represented by line graph with the concentration of compound on the x axis and percent control growth on the y axis.

[3] = biological target: T2, cIAP1-BIR3 (Homo sapiens, UniProt Q13490); test: Biacore SPR solution inhibition (competition with smac7mer peptide) binding assay, cIAP1-BIR3; settings: 6 nM cIAP1-BIR3, competition with immobilised smac7mer peptide, 25° C.; read-out: CIAP-BIR3 Binding Biacore (Competitive) EC50
T2 construct: with either 100 nM XIAP-BIR3 or 6 nM cIAP1-BIR3
Description: as §1, §2, §3, §4, §5, §6, §7

T1 sequence (P98170 241-356 limits assumed): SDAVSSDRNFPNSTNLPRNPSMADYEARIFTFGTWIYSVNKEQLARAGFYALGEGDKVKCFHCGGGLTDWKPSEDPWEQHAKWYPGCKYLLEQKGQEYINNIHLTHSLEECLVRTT
T2 sequence (Q13490 260-352 limits assumed): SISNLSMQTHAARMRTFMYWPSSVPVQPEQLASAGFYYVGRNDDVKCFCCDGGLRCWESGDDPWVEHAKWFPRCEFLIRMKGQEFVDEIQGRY

Row | EC50 [1] | IC50 [2] | EC50 [3] | Molecule
1 | 70.7 to 71.3 nM | 0.0026 to 0.14 nM | 1.66 to 1.71 nM | CN[C@@H](C)C(=O)N[C@H](C(=O)N1CCC[C@H]1c1cncc(-n2ccc3c(C(=O)NCCCNC(=O)c4cccc5c4ccn5-c4cncc([C@@H]5CCCN5C(=O)[C@@H](NC(=O)[C@H](C)NC)C(C)C)c4)cccc32)c1)C(C)C [Example 1C, (S,S,S)—N,N′-(propane-1,3-diyl)bis(1-(5-((S)-1-((S)-3-methyl-2-((S)-2-(methylamino)propanamido)butanol)pyrrolidin-2-yl)pyridin-3-yl)-1H-indole-4-carboxamide)]
2 | 56.8 to 57 nM | < 0.0026 nM | 1.22 to 1.23 nM | CN[C@@H](C)C(=O)N[C@H](C(=O)N1CCC[C@H]1c1cncc(-n2ccc3c(C(=O)NCc4ccc(CNC(=O)c5cccc6c5ccn6-c5cncc([C@@H]6CCCN6C(=O)[C@@H](NC(=O)[C@H](C)NC)C(C)C)c5)cc4)cccc32)c1)C(C)C [Example 1B, (S,S,S)—N,N′-(1,4-phenylenebis(methylene))bis(1-(5-((S)-1-((S)-3-methyl-2-((S)-2-(methylamino)propanamido)butanoyl)pyrrolidin-2-yl)pyridin-3-yl)-1H-indole-4-carboxamide)]
3 | 42 to 79.9 nM | 0.1 to 0.27 nM | 0.97 to 0.98 nM | CN[C@@H](C)C(=O)N[C@H](C(=O)N1CCC[C@H]1c1cncc(-n2cc(C(=O)NCCCOCCOCCOCCCNC(=O)c3cn(-c4cncc([C@@H]5CCCN5C(=O)[C@@H](NC(=O)[C@H](C)NC)C(C)C)c4)c4ccccc34)c3ccccc32)c1)C(C)C [Example 2C, (S,S,S)—N,N′-(3,3′-(2,2′-oxybis(ethane-2,1-diyl)bis(oxy))bis(propane-3,1-diyl))bis(1-(5-((S)-1-((S)-3-methyl-2-((S)-2-(methylamino)propanamido)-butanoyl)pyrrolidin-2-yl)pyridin-3-yl)-1H-indole-3-carboxamide)]
4 | 19.7 to 20.8 nM | 0.18 to 1.21 nM | 0.5 to 0.51 nM | CN[C@@H](C)C(=O)N[C@H](C(=O)N1CCC[C@H]1c1cncc(-n2cc(C(=O)NCCCOCCCNC(=O)c3cn(-c4cncc([C@@H]5CCCN5C(=O)[C@@H](NC(=O)[C@H](C)NC)C(C)C)c4)c4ccccc34)c3ccccc32)c1)C(C)C [Example 2I]
5 | 44.7 nM | 0.12 to 0.17 nM | 0.59 nM | [2H]C([2H])([2H])N[C@@H](C)C(=O)N[C@H](C(=O)N1CCC[C@H]1c1cncc(-n2ccc3c(C(=O)NCCCOCCOCCCNC(=O)c4cccc5c4ccn5-c4cncc([C@@H]5CCCN5C(=O)[C@@H](NC(=O)[C@H](C)NC([2H])([2H])[2H])C(C)C)c4)cccc32)c1)C(C)C [Example 3A, (S,S,S)—N,N′-(3,3′-(ethane-1,2-diylbis(oxy))bis(propane-3,1-diyl))bis(1-(5-((S)-1-((S)-3-methyl-2-((S)-2-(trideuteromethylamino)propanamido)butanoyl)-pyrrolidin-2-yl)pyridin-3-yl)-1H-indole-4-carboxamide)]
6 | 51.2 to 59.4 nM | 0.02 to 0.21 nM | 0.51 to 1.04 nM | CN[C@@H](C)C(=O)N[C@H](C(=O)N1CCC[C@H]1c1cncc(-n2cc(C(=O)NCCCOCCOCCOCCOCCOCCCNC(=O)c3cn(-c4cncc([C@@H]5CCCN5C(=O)[C@@H](NC(=O)[C@H](C)NC)C(C)C)c4)c4ccccc34)c3ccccc32)c1)C(C)C [Example 2B, (S,S,S)—N,N′-(4,7,10,13,16-pentaoxanonadecane-1,19-diyl)bis(1-(5-((S)-1-((S)-3-methyl-2-((S)-2-(methylamino)propanamido)butanoyl)pyrrolidin-2-yl)pyridin-3-yl)-1H-indole-3-carboxamide)]
7 | 49.8 to 52.2 nM | 0.14 to 2.86 nM | 0.6 to 1.1 nM | (S,S,S)—N,N′-(propane-1,3-diyl)bis(1-(5-((S)-1-((S)-3-methyl-2-((S)-2-(methylamino)propanamido)butanoyl)pyrrolidin-2-yl)pyridin-3-yl)-1H-indole-3-carboxamide) [Example 2A]
8 | 25.5 to 25.8 nM | < 0.0026 nM | 1.71 to 1.73 nM | CN[C@@H](C)C(=O)N[C@H](C(=O)N1CCC[C@H]1c1cncc(-n2cc(C(=O)NCCCCCCNC(=O)c3cn(-c4cncc([C@@H]5CCCN5C(=O)[C@@H](NC(=O)[C@H](C)NC)C(C)C)c4)c4ccccc34)c3ccccc32)c1)C(C)C [Example 2L, (S,S,S)—N,N′-(hexane-1,6-diyl)bis(1-(5-((S)-1-((S)-3-methyl-2-((S)-2-(methylamino)propanamido)butanol)pyrrolidin-2-yl)pyridin-3-yl)-1H-indole-3-carboxamide)]
9 | 47.9 to 51.6 nM | < 0.0026 nM | 2.24 to 2.27 nM | CN[C@@H](C)C(=O)N[C@H](C(=O)N1CCC[C@H]1c1cncc(-n2cc(C(=O)NCc3ccc(-c4ccc(CNC(=O)c5cn(-c6cncc([C@@H]7CCCN7C(=O)[C@@H](NC(=O)[C@H](C)NC)C(C)C)c6)c6ccccc56)cc4)cc3)c3ccccc32)c1)C(C)C [Example 2G, (S,S,S)—N,N′-(biphenyl-4,4′-diylbis(methylene))bis(1-(5-((S)-1-((S)-3-methyl-2-((S)-2-(methylamino)propanamido)butanoyl)pyrrolidin-2-yl)pyridin-3-yl)-1H-indole-3-carboxamide)]
10 | 26.1 to 26.4 nM | < 0.0026 nM | 0.7 to 0.71 nM | CN[C@@H](C)C(=O)N[C@H](C(=O)N1CCC[C@H]1c1cncc(-n2cc(C(=O)N[C@H]3CC[C@H](NC(=O)c4cn(-c5cncc([C@@H]6CCCN6C(=O)[C@@H](NC(=O)[C@H](C)NC)C(C)C)c5)c5ccccc45)CC3)c3ccccc32)c1)C(C)C [Example 2M, 1-(5-((S)-1-((S)-3-methyl-2-((S)-2-(methylamino)propanamido)-butanoyl)pyrrolidin-2-yl)pyridin-3-yl)-N-((1S,4S)-4-(1-(5-((S)-1-((S)-3-methyl-2-((S)-2-(methylamino)propanamido)butanoyl)pyrrolidin-2-yl)pyridin-3-yl)-1H-indole-3-carboxamido)cyclohexyl)-1H-indole-3-carboxamide]
11 | 70.9 to 71 nM | < 0.0026 nM | 1.21 to 1.23 nM | CN[C@@H](C)C(=O)N[C@H](C(=O)N1CCC[C@H]1c1cncc(-n2cc(C(=O)NCc3ccc(CNC(=O)c4cn(-c5cncc([C@@H]6CCCN6C(=O)[C@@H](NC(=O)[C@H](C)NC)C(C)C)c5)c5ccccc45)cc3)c3ccccc32)c1)C(C)C [Example 2P, (S,S,S)—N,N′-(1,4-phenylenebis(methylene))bis(1-(5-((S)-1-((S)-3-methyl-2-((S)-2-(methylamino)propanamido)butanoyl)pyrrolidin-2-yl)pyridin-3-yl)-1H-indole-3-carboxamide)]
